According to patent publication US8663912B2, “Fluorogenic substrate for ADAMTS13” (Washington University, priority 2011, dated 2014):
Several values for one entry are separate records, joined by “and”; a condition that tells them apart may be missing. Equal entries are not always repeated. * marks the point of attachment. X1 = CC1(C)C(/C=C/C2=C(Cl)C(=C/C=C3/N(CCCCCC(=O)*)c4ccc5cc(S(=O)(=O)O)ccc5c4C3(C)C)/CCC2)=[N+](CCCS(=O)(=O)[O-])c2ccc(N(CCCS(=O)(=O)O)CCCS(=O)(=O)O)cc21; X2 = CC(C)(C)c1cc(/C=C/C=C2\N(CCCS(=O)(=O)O)c3ccc(S(=O)(=O)O)cc3C2(C)CCCC(=O)CCN2C(=O)CC(*)C2=O)c2ccc(N(CCCS(=O)(=O)[O-])CCCS(=O)(=O)O)cc2[o+]1

Columns and labels:
[1] = biological target: T1, ADAMTS13 (Homo sapiens, UniProt Q76LX8); experiment: Fluorogenic ADAMTS13 activity assay, signal and sensitivity compared between substrates; type: biochemical; parameters: from tissue; host or cells: human plasma (TTP patients, healthy controls)
T1 sequence (Q76LX8 75-1427): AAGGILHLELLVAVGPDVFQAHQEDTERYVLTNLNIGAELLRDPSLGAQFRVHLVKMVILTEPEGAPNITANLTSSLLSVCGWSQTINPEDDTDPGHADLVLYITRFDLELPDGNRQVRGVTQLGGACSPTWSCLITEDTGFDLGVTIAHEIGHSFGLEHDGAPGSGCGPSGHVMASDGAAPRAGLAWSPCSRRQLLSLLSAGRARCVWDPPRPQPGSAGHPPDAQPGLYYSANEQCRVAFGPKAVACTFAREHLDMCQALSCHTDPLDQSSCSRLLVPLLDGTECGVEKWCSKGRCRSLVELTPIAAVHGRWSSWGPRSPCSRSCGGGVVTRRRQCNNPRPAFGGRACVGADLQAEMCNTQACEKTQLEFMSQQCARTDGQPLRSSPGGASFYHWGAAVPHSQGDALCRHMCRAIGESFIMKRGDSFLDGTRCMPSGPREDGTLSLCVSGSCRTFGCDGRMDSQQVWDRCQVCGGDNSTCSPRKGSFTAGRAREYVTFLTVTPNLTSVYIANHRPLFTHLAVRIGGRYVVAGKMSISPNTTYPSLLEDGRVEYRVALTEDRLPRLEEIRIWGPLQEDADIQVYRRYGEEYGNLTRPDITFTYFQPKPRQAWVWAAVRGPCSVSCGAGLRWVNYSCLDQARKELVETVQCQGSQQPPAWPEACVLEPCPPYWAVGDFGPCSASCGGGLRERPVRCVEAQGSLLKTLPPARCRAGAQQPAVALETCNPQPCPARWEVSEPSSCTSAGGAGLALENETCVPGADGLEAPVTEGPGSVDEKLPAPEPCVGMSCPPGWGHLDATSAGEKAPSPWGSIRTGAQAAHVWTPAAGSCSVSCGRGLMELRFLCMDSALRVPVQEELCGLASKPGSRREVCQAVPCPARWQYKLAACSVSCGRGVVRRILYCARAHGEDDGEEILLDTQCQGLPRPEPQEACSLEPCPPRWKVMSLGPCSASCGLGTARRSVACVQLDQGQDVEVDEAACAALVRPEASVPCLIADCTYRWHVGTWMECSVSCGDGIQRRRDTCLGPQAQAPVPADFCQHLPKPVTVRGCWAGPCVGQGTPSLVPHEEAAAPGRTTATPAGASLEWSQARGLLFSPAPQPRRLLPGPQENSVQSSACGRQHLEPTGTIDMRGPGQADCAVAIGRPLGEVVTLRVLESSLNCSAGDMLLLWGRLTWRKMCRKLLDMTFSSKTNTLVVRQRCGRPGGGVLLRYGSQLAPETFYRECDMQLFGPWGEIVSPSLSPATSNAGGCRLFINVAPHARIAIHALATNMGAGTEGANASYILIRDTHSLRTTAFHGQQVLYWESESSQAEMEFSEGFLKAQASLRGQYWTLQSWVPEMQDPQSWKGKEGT
Protocol: In these experiments, the FRETS-rVWF71 substrate was utilized in a microtiter format (FIG. 2), which is compatible with fluorescence plate readers that are supported by laboratory equipment suppliers and available in many clinical hemostasis laboratories, such as the BIO-TEK FLx800 Fluorometer from DiaPharma (West Chester, Ohio) or Technoclone (Vienna). Reactions were performed in 200 μL 5 mM Bis-Tris, pH 6, 25 mM CaCl2, at room temperature with added plasma as shown (FIG. 2). Fluorescence was monitored in a Victor^2 V microplate reader (Perkin Elmer Life Sciences, Boston, Mass.) with 638 nm excitation filter and 658 nm emission filter.
Using 1 μM substrate with varying amounts of plasma or serum and optimal filters for each substrate, ΔF/min for VWF-rFRETS71 is 8-fold greater compared to VWF-FRETS73. In addition, assays with VWF-rFRETS71 are linear with time and linear with enzyme up to >95% serum or plasma added, with no significant background fluorescence or interference from blood constituents. The combination of stronger fluorescence signal and compatibility with undiluted plasma make FRETS-rVWF71 ˜250-fold more sensitive than FRETS-VWF73.
Assays were performed at 30° C. Samples (100 μL) of plasma or serum, diluted as necessary in assay buffer, were pipetted in duplicate in 96 well white microplates (Optiplate-96, PerkinElmer, Waltham, Mass.). Reaction was initiated by addition of 100 μL substrate in assay buffer. Cleavage of FRETS-rVWF71 was detected as an increase in fluorescence compared to control reactions without added enzyme at 2 min intervals using a Victor^2V Multilabel Counter (PerkinElmer, Waltham, Mass.) or Synergy H1 Hybrid Multi-Mode Microplate Reader (Biotek, Winooski, Vt.) equipped with 635±10 nm excitation and 660±10 nm emission filters. Initial velocities were determined by fitting progress curves to the polynomial ΔF=A+Bt+Ct^2, where ΔF is the change in fluorescence, t is time, A is the y-intercept, B is the initial velocity (slope), and the term Ct^2 accounts for any decline in velocity due to substrate consumption or photobleaching.
ADAMTS13 assays with the FRETS-VWF73 substrate (Kokame, K., et al. Br. J. Haematol. 129:93-100, 2005) (Peptide International, Louisville, Ky.) were performed according to the manufacturer's instructions. Hemoglobin was prepared by hypotonic lysis of red blood cells from a voluntary donor and quantified with Drabkin's reagent (Sigma, St. Louis, Mo.).
Results with FRETS-rVWF71 and FRETS-VWF73 assayed under standard conditions (Kokame, K., et al. Br. J. Haematol. 129:93-100, 2005) correlated well with an inter-assay CV of 3.8%. Using 1 μM substrate and 5 μL PNP, the change in fluorescence (ΔF/min) for FRETS-rVWF71 (50 mM HEPES, pH 7.4, 150 mM NaCl) was 8-fold greater than for FRETS-VWF73 (5 mM Bis-Tris, pH 6).

[2] = biological target: T1, ADAMTS13; experiment: Effect of bilirubin and hemoglobin on FRETS-rVWF71 ADAMTS13 assays; type: biochemical; parameters: FRETS-rVWF71 cleavage by plasma ADAMTS13 (50 μL) was assessed in 200 μL reactions; from tissue; host or cells: human plasma or serum (pooled normal plasma, healthy donors, TTP patients); settings: >20 mg/dL (250 μM) conjugated bilirubin

X1-GQAPNLVYMVTGC(X2)PASDEIRRLPGDIQVVPIGVGPNANVQELERIGWPNAPILIQDFETLPREAPDLVLQR [FRETS-rVWF71]
change in fluorescence (ΔF/min) greater than for FRETS-VWF73 ([1]; 1 μM substrate, 5 μL PNP, FRETS-rVWF71 in 50 mM HEPES pH 7.4, 150 mM NaCl, FRETS-VWF73 in 5 mM Bis-Tris pH 6): 8 fold
ΔF/min greater compared to FRETS-VWF73 ([1]; 1 μM substrate, varying amounts of plasma or serum, optimal filters for each substrate): 8 fold
assay sensitivity relative to FRETS-VWF73 ([1]; equal concentrations of plasma as the enzyme source): approximately 8 fold
overall sensitivity relative to FRETS-VWF73 ([1]; stronger fluorescence signal combined with undiluted plasma): ~250 fold and 240 fold
further increase of sensitivity relative to FRETS-VWF73 ([1]; use in undiluted plasma): 30 fold
sensitivity of assay to conjugated bilirubin [2]: insensitive
